Data published in US3950346A, “Novel process for producing 2-ketoethylbenzomorphan derivatives and salts thereof” (Sumitomo Chemical Company, Limited, priority 1972, dated 1976).
Like-named read-outs stand apart in the source and are kept apart here.

Tests used:
[1] = Physical dependency test: abstinence syndrome (body weight decrease on the day after drug withdrawal following 4 weeks of administration); assay type: in vivo, rats (male, Wistar strain); parameters: key to Abstinence syndrome: +++: severe decrease (about 5% decrease); ++: moderate decrease; +: mild decrease; -: no decrease; conditions: for Abstinence syndrome: 20 mg/kg/day, subcutaneously twice a day for 4 weeks, body weight decrease on next day after withdrawal, male Wistar rats; for addiction in long term animal tests / physical dependency: result in words; for physical dependency: orally or subcutaneously to rats everyday for 4 weeks
Protocol: Known 6,7-benzomorphan derivatives such as 2'-hydroxy-2,5,9-trimethyl-6,7-benzomorphan [cf. […] On account of this addiction liability, these analgesics are severely restricted in a therapeutic use.
Note: Groups of male rats of Wistar strain (body weight, 150 g at the beginning of the test), each group consisting of 20 male rats, were subcutaneously given the test compound twice a day for 4 consecutive weeks. On the next day after drug withdrawal, the body weight was measured. The symbols have the following meanings: +++, severe decrease (about 5% decrease); ++, moderate decrease; +, mild decrease; -, no decrease.

[2] = Subcutaneous writhing test (antagonism of the syndrome produced by intraperitoneal 0.6% aqueous acetic acid); assay type: in vivo; conditions: mice, 20 minutes before acetic acid, Litchfield-Wilcoxon's method
Protocol: […]. Note: The test was based on the specific antagonism of the test compound to the typical syndrome produced by intraperitoneal injection of 0.6% aqueous acetic acid. The syndrome was characterized by intermittent contractions of the abdomen, twisting and turning of the trunk and extension of the hind legs. A group of 5 mice was used for each dose level. The test compound was administered subcutaneously 20 minutes before the injection of acetic acid. […] The ED50 value was calculated according to the Litchfield-Wilcoxon's method.

[3] = known, cf. U.S. Pat. No. 3,138,603; result in words; cited from earlier work
[4] = known, cf. U.S. Pat. No. 3,138,603; result in words; cited from earlier work; remark: listed apart in the source
[5] = Mus musculus, sc, read-out: ED50

| Compound | Abstinence syndrome [1] | addiction in long term animal tests [1] | physical dependency [1] | ED50 [2, 5] [mg/kg] | ED50 [2] [mg/kg] | analgesic activity [3] | addiction liability [4] |
| --- | --- | --- | --- | --- | --- | --- | --- |
| CCOC(=O)CCN1CCC2(C)c3cc(O)ccc3CC1C2C (stereo not drawn) [2'-Hydroxy-2-(β-ethoxycarbonylethyl)-5,9-dimethyl-6,7-benzomorphan] | - | do not show any addiction | did not produce any physical dependency | 16.1 |  |  |  |
| CC(C)=CCN1CCC2(C)c3cc(O)ccc3CC1C2C (stereo not drawn) [Pentazocine, 2'-hydroxy-2-(3"-methyl-2"-butenyl)-5,9-dimethyl-6,7-benzomorphan, reference compound] |  |  |  | 17.5 |  |  |  |
| 2'-Hydroxy-2-(β-ethylcarbonylethyl)-5,9-dimethyl-6,7-benzomorphan | - | do not show any addiction | did not produce any physical dependency |  | 7.0 |  |  |
| CC1C2Cc3ccc(O)cc3C1(C)CCN2C (stereo not drawn) [2'-hydroxy-2,5,9-trimethyl-6,7-benzomorphan] | ++ |  |  |  |  | potent analgesic activity | show an addiction liability |
